{
  "source": "patent US10285994B2",
  "about": "“Method of preventing or treating osteoporosis by neddylation inhibitor” (Chang Gung University, priority 2017, dated 2019)",
  "key": {"RAW264.7 cells [1]": {"test_system": "RAW264.7 cells", "assay": "Osteoclast formation from RAW264.7 cells, TRAP staining", "type": "cell-based, mouse", "settings": "sRANKL-activated RAW264.7 cells, 7 days, FIG. 2A", "procedure": "(§1) FIGS. 2A-2D are data collected from RAW264.7 cells respectively incubated in the medium containing sRANKL (50 ng/ml) and specified concentrations of MLN4924 for 7 days according to example 1.2 of the present disclosure. FIG. 2A: the photographs of TRAP staining depicting the differentiation of osteoclasts from RAW264.7 cells. FIG. 2B: after the differentiation of osteoclasts in Corning Osteo Surface, the cells were removed, and the resorbed areas for confirming osteoclast activity were analyzed by 1% toluidine blue staining. FIG. 2C: the culture medium is subject to Biovision Cathepsin K Activity Fluorometric Assay Kit for the analysis of cathepsin K activity. FIG. 2D: the effect of effective doses of MLN4924 on the viability of RAW264.7 cells is evaluated by MTT assay. Scale bar represents 100 μm. Data are expressed as mean±SD where *p<0.05.\nRAW264.7 cells (murine monocytic/macrophage cell line) were cultured in Dulbecco's modified Eagle's medium high glucose (DMEM)(Gibco BRL, Gaithersburg, Md.) containing 10% fetal bovine serum (Gibco) and 1× GlutaMax (Gibco).\nFor in vitro osteoclast formation, the pre-osteoclasts and RAW264.7 cells were cultured in the medium containing 50 ng/ml sRANKL […] specified concentrations of MLN4924 for seven days. […]"}, "[2]": {"test_system": "ovariectomized (OVX) mice", "assay": "Ovariectomy + sRANKL osteoporosis mouse model, micro-CT of distal femur", "type": "in vivo", "settings": "10 mg/kg i.p. once daily for 2 weeks", "procedure": "FIGS. 6A-6E are the data depicting the mouse model of ovariectomy-induced osteoporosis, in which the ovariectomized (OVX) mice are respectively treated with sRANKL (1 mg/Kg) in the absence or presence of MLN4924 (10 mg/Kg) according to example 5.1 of the present disclosure. FIG. 6A: Micro computed-tomography (micro-CT) three-dimensional images of the distal femurs of mice respectively treated with the indicated treatments, in which the left panels represent transaxial plane, and the right panels represent coronal plane. FIGS. 6B-6D: micro-CT measurement of trabecular bone parameters, including bone volume/total volume (FIG. 6B), trabecular number (FIG. 6C), and trabecular space (FIG. 6D). FIG. 6E: Serum level of C-telopeptide of type 1 collagen (CTX-1) in control, OVX, OVX+sRANKL, and OVX+sRANKL+MLN4924 groups. Values are expressed as mean±SD, N=6 per group. *p<0.05; **p<0.01.\n(§2) All experimental procedures were approved by the Institutional Animal Care and Use Committee of the Chang Gung Memorial Hospital at Chiayi and complied with the Guideline for the Care and Use of Laboratory Animals available through the National Academy of Sciences (IACUC number: 2013100102 and 2015103001). All efforts were made to minimize the suffering of the animals. C57BL/6J female mice (6-8 weeks old; obtained from BioLasco in Taiwan) were operated ovariectomy surgery (OVX). 48 hours later of OVX operation, sRANKL (1 mg/kg) or saline was injected intraperitoneally once daily for two days followed by intraperitoneal injection of MLN4924 (10 mg/kg) once daily for 2 weeks. Mice were sacrificed with CO2 asphyxiation, and the tibias and femurs were isolated therefrom. The tibias were subject to histochemistry assay, and the femurs were subject to bending test and tomographic analysis by MTS (Testresources, Shakopee, Minn.) and Skyscan 1272 (Bruker, Kontich, Belgium), respectively. Serum levels of cross linked C-telopeptide of type I collagen (CTX-1) (CEA665Mu) was measured by specific ELISA kit (USCN life science incorporation, Wuhan, Hubei, China).\nThe mice were first treated with specified treatments before subjecting to micro-computed tomography (pCT).\nThe effect of MLN4924 on trabecular bone parameters, including the bone volume/total tissue volume, trabecular number, and trabecular space in bone loss mice were then investigated, and results are presented in FIGS. 6B to 6D."}, "MC3T3-E1 cells": {"test_system": "MC3T3-E1 cells", "assay": "Osteogenesis, Alizarin Red S stain of MC3T3-E1 cells", "type": "cell-based, mouse", "settings": "MC3T3-E1, osteoblast differentiation medium, 21 days, FIG. 4B", "procedure": "FIGS. 4A-4B respectively depict the osteogenesis of mouse pre-osteoblast cell line MC3T3-E1 cells incubated in the differentiation medium containing specified concentrations of MLN4924 for 21 days according to example 3 of the present disclosure. FIG. 4A: the growth of MC3T3-E1 cells during osteogenesis is analyzed by crystal violet staining. FIG. 4B: the osteogenesis of MC3T3-E1 cells on day 21 is analyzed by measuring Alizarin Red S stain. Diff: osteoblast differentiation medium. MLN: MLN4924.\nThe mouse pre-osteoblast cell line MC3T3-E1 cells were cultured in osteoblast differentiation medium with or without MLN4924 for 21 days."}, "[3]": {"test_system": "ovariectomized (OVX) mice", "assay": "Three-point bending test of femurs of OVX + sRANKL mice", "type": "in vivo, mouse", "settings": "10 mg/kg i.p. once daily for 2 weeks", "source_text": "FIGS. 7A-7D are histograms respectively depicting the mechanical properties of femurs in control, OVX, OVX+RANKL, and OVX+RANKL+MLN4924 groups according to example 5.2 of the present disclosure, including modulus (FIG. 7A), strain at break (FIG. 7B), stress at yield (FIG. 7C), and load at break (FIG. 7D). Values are expressed as mean±SD, N=6 per group. *p<0.05; **p<0.01.\nas §2\nThe femurs were tested to failure by three-point bending on an MTS Synergie 200 (Testresources, Shakopee, Minn.). The speed of load application was set as 1 mm/min with preload of 1N, load cell of 500N, settling time of 30 seconds and distance between the points of 10 mm. Force-displacement data were plotted from the structural properties, including modulus, load at break, stress at yield and strain at yield.\nBone loss results in bone fragile, thus rendering bone being easier to break. In this example, mice were first treated with OVX or OVX+sRANKL to cause bone loss, and then MLN4924 was administered. The femurs of mice were then subject to shaft fracture testing by three-point bending so as to evaluate the biomechanical properties thereof."}, "RAW264.7 cells [4]": {"test_system": "RAW264.7 cells", "type": "cell-based, mouse", "procedure": "as §1\nIn addition to BMMs, the effect of MLN4924 on macrophage cell line RAW264.7 cells was also investigated. The RAW264.7 cells were cultured in the medium containing sRANKL and MLN4924 for 7 days, then subjected to osteoclast formation evaluation by TRAP staining."}},
  "data": [
    {"smiles": "NS(=O)(=O)OC[C@@H]1C[C@@H](n2ccc3c(N[C@H]4CCc5ccccc54)ncnc32)C[C@@H]1O", "note": "[MLN4924, (1S,2S,4R)-4-(4-((1S)-2,3-Dihydro-1H-inden-1-ylamino)-7H-pyrrolo(2,3-d)pyrimidin-7-yl)-2-hydroxycyclopentyl) methyl sulphamate]", "values": [
      {"measurement": "differentiation of osteoclasts (TRAP staining)", "setting": "RAW264.7 cells [1]", "value": "significantly inhibited"},
      {"measurement": "trabecular bone loss at distal femoral metaphysis (micro-CT images)", "setting": "[2]; FIG. 6A", "value": "could rescue the trabecular bone loss caused by OVX+sRANKL treatment"},
      {"measurement": "bone volume/total tissue volume", "setting": "[2]; vs OVX+sRANKL group, FIG. 6B", "value": "significantly rescued the sRANKL-mediated trabecular bone loss"},
      {"measurement": "trabecular number", "setting": "[2]; vs OVX+sRANKL group, FIG. 6C", "value": "significantly rescued the sRANKL-mediated trabecular bone loss"},
      {"measurement": "trabecular space", "setting": "[2]; vs OVX+sRANKL group, FIG. 6D", "value": "significantly rescued the sRANKL-mediated trabecular bone loss"},
      {"measurement": "differentiation of osteoblasts (Alizarin Red S)", "setting": "MC3T3-E1 cells", "value": "neither the survival of osteoblasts (FIG. 4A), nor the differentiation of osteoblasts (FIG. 4B) was affected"},
      {"measurement": "femur modulus", "setting": "[3]; FIG. 7A", "value": "prevented the levels of these parameters from dropping"},
      {"measurement": "femur strain at break", "setting": "[3]; FIG. 7B", "value": "prevented the levels of these parameters from dropping"},
      {"measurement": "femur stress at yield", "setting": "[3]; FIG. 7C", "value": "prevented the levels of these parameters from dropping"},
      {"measurement": "femur load at break", "setting": "[3]; FIG. 7D", "value": "prevented the levels of these parameters from dropping"},
      {"measurement": "cell viability of RAW264.7 cells", "setting": "RAW264.7 cells [4]", "value": "did not affect cell viability"}
    ]}
  ]
}
